Experimental data from patent US5214067A, “Fungicidal compositions and method” (Merck & Co., Inc., priority 1990, dated 1993).
Values after ≈ are worked out from the molar mass of the structure shown.

Legend:
C. albicans = test: Synergistic and fungicidal effect: viable cell count (CFU/ml) of exponential phase C. albicans culture over time, drugs alone and in combination; assay type: cell-based, Candida albicans; conditions: β-lactone 3.1 μg/ml, pyranyl glycine ester 2 μg/ml, alone or together
Method: Synergistic and fungicidal effects were determined by treating exponential phase C. albicans culture with β-Lactone and pyranyl glycine ester at respective MIC level alone and in combination. Exponential phase cultures were prepared by diluting an overnight culture 1:50 or 1:1000 YNB/G. After incubating the diluted cells 7 or 17 hrs. at 37° C., the exponential phase cells were diluted in YNB/G to A600 =0.004u/ml to obtain 3000 cfu/ml.
10 microliters (μl) of β-lactone compound or pyranyl glycine ester compound prepared in DMSO was added to 1 ml of diluted exponential phase cells. The tubes were incubated at 37° C. at 250 rpm for about 24 hours. Periodically, aliquots were diluted in 0.9% saline and plated on Sabouraud dextrose agar plates to determine the number of cfu/ml.

Candida albicans MY 1055 = test: Minimum inhibitory concentration (broth dilution) against Candida albicans MY 1055; assay type: cell-based; conditions: MY1055, C. albicans MY 1055, YNB/G, 37° C., 250 rpm, 17 hr
Method: 11-(3-hydroxymethyl-4-oxo-2oxetanyl)-7-methyl-2,4-undecadienoic acid (β-lactone compound), was solubilized in 100 percent dimethylsulfoxide (DMSO). Twofold dilutions were made with DMSO to obtain final drug concentrations in the broth dilution assay tubes ranging from […].
The Candida albicans, MY 1055 yeast culture, maintained in yeast nitrogen base/glucose (1/2 percent), YNB/G, was transferred to fresh medium and incubated 7 hours at 37° with shaking at 250 rpm. After incubation, each culture was diluted to A600 =0.0004 U/ml which was previously determined to be equal to 3000 cfu/ml (colony forming units per milliliter).
1 milliliter of YNB/G inoculated with yeast culture was added to sterile test tubes. The tubes were incubated at 250 rpm, 37° C. for 17 hr. The minimum inhibitory concentration (MIC) was recorded as the lowest concentration of drug […].
In a similar manner, the pyranyl ester was solubilized in dimethyl sulfoxide and dilution assay tubes from […] prepared. […] The MIC against C. C. albicans MY 1055 was determined to be 2 μg/ml.

[1] = time 2 hours, no drug 4.45 × 10^3
[2] = time 4.5 hours, no drug 1.75 × 10^4
[3] = time 7.5 hours, no drug 1.10 × 10^5
[4] = time 16.0 hours, no drug 5.35 × 10^6
[5] = time 20.5 hours, no drug 5.30 × 10^7
[6] = time 24.0 hours, no drug 7.65 × 10^7

Row | MIC (Candida albicans MY 1055) | Structure (SMILES) | Fungal Growth (CFU/ML) (C. albicans; time 0 hours (start), 37° C.) | Fungal Growth (CFU/ML) (C. albicans; [1]) | Fungal Growth (CFU/ML) (C. albicans; [2]) | Fungal Growth (CFU/ML) (C. albicans; [3]) | Fungal Growth (CFU/ML) (C. albicans; [4]) | Fungal Growth (CFU/ML) (C. albicans; [5]) | Fungal Growth (CFU/ML) (C. albicans; [6])
1 | 2 µg/mL (≈ 5.93 µM) | CCCC=CC=CC=C(C)C1OCC(C)C(OC)C1OC(=O)CN (stereo not shown) [Pyranyl Glycine Ester Compound, (2,3,4,5)-tetrahydro-4-methoxy-5-methyl-2-(1-methyl-1,3,5-nonatrienyl)-2-pyran-3-yl-glycine] | 2.70 × 10^3 CFU/ML | 6.05 × 10^3 CFU/ML | 9.60 × 10^3 CFU/ML | 1.40 × 10^4 CFU/ML | 1.00 × 10^5 CFU/ML | 1.02 × 10^6 CFU/ML | 1.37 × 10^6 CFU/ML
2 | 3.1 µg/mL (≈ 9.56 µM) | CC(=CC(=O)O)C=C(C)CC(C)CCCCC1OC(=O)C1CO (stereo not drawn) [β-Lactone Compound] | 2.70 × 10^3 CFU/ML | 5.95 × 10^3 CFU/ML | 4.10 × 10^3 CFU/ML | 4.55 × 10^3 CFU/ML | 1.70 × 10^3 CFU/ML | 1.50 × 10^3 CFU/ML | 1.50 × 10^3 CFU/ML
